These are literature values, as cited in patent publication US12343320B2, “Intraveneous dofetilide to reduce the risk of developing AF/AFL post coronary bypass surgery” (Hyloris Developments SA, priority 2023, dated 2025).

The conditions of series [1]: IV dose of 1.5 μg/kg, restated rounded.
The next series deals with QTc interval. As to conditions: average slope; Sedgwick et al 1991.

`CN(CCOc1ccc(NS(C)(=O)=O)cc1)CCc1ccc(NS(C)(=O)=O)cc1` [dofetilide, Dofetilide]: in series [1], the peak level is reported as 1.7 ng/mL. Besides, in the series on QTc interval, the “QTc change per dofetilide plasma concentration, average” value was 20 ms.
